The compounds below were run on adipose cells of rats (assay: Evaluation of the sugar-transporting activity (2-[14C(U)]-deoxy-D-glucose incorporation)). Conditions: 100 μg/ml of each compound; evaluated on the basis of the reinforcing effect of insulin (100 nM); rat adipose cells.
Type: cell-based
Protocol: After the decapitation and venesection of 6 male Wistar rats (body weight: 150 to 200 g), an incision was made in the abdomen of each rat to extract 6 g in total of epididymal adipose tissues. The tissues were finely cut into 2 mm×2 mm pieces in 6 ml of KRH (Krebs-Ringer Hepes, composition: 130 mM of sodium chloride, 4.7 mM of potassium chloride, 1.2 mM of potassium dihydrogenphosphate, 1.2 mM of magnesium sulfate, 1 mM of calcium chloride and 25 mM of Hepes, pH=7.6) containing 5% of BSA (bovine serum albumin). 24 mg of collagenase (type I) was added thereto and the digestion treatment was conducted for about 40 minutes to obtain about 6 ml of isolated adipose cells. The collagenase was removed by the buffer exchange. 2% BSA/KRH solution was added to the residue for the re-suspension to obtain 45 ml of an adipose cell suspension.
The sugar-transporting activity of the compounds of the present invention was evaluated with reference to a method described in a literature [Annual Review of Biochemistry, Vol. 55, p. 1059 (1986)]. In the test, 200 μl of the adipose cell suspension was poured in each polystyrene test tube, 100 μl of the solution of the test substance (by dilution of 10 mg/ml substance dimethyl sulfoxide solution with KRH) was added thereto, and the obtained mixture was shaken and then cultured at 37° C. for 30 minutes.
The sugar-transporting activity was evaluated by measuring the quantity of 2-[^14C(U)]-deoxy-D-glucose incorporated per a unit time. Namely, 2-[^14C(U)]-deoxy-D-glucose was added to the adipose cell suspension after the pre-culture (the final concentration: 0.5 μCi/sample). 5 minutes after, cytochalasin B (final concentration: 10 μM) was added to the mixture to terminate the sugar transportation. After forming a dinonyl phthalate layer, the obtained mixture was centrifuged to separate the adipose cells from the buffer. The quantity of 2-[^14C(U)]-deoxy-D-glucose contained in the adipose cell layer was determined with a liquid scintillation counter to determine the quantity of the incorporated sugar. In this evaluation system, when insulin (100 nM) having the effect of increasing the sugar transportation was used, the effect was about 7 times as high as that obtained in the insulin-free control group.
The results of the evaluation of the sugar-transporting activity obtained by using 100 μg/ml of each compound of the present invention are shown in Table 6. The sugar transporting activity in Table 6 was evaluated on the basis of the reinforcing effect of insulin (100 nM). […] The symbols in Table 6 are as follows: • No: Example No., and • A: sugar transporting activity.
The results of the evaluation of the sugar-transporting activity obtained by using each compound of the present invention are shown in Table 7. The sugar transporting activity in Table 7 was determined in terms of the concentration (EC50: μg/ml) of a test compound, having a reinforcing effect corresponding to 50% on the basis of the reinforcing effect of insulin having a reinforcing effect of 100%.

O=C1NCC2=C1C(c1ccc(I)cc1)Nc1ccccc1N2 (stereo not drawn) [Example 3] and O=C1NCC2=C1C(c1ccc(Cl)cc1)Nc1ccccc1N2 (stereo not drawn) [Example 2] fall in the same range of activation at 100 µg/mL: 20 to 40% for the first, 20 to 40% for the second.

First: O=C1NCC2=C1C(c1cnc(-c3ccccc3)nc1)Nc1ccccc1N2 (stereo not drawn) [Example 34]
Second: O=C1NCC2=C1C(c1ccc(C#Cc3ccccc3)cc1)Nc1ccccc1N2 (stereo not drawn) [Example 6]
The activation at 100 µg/mL of the first is lower: 20 to 40% for the first, 40 to 70% for the second.

O=C1NCC2=C1C(c1ccc(OCCC34CC5CC(CC(C5)C3)C4)cc1)Nc1ccccc1N2 (stereo not drawn) [Example 15] and O=C1NCC2=C1C(c1ccc(OC3C4CC5CC(C4)CC3C5)cc1)Nc1ccccc1N2 (stereo not drawn) [Example 13] fall in the same range of activation at 100 µg/mL: 40 to 70% for the first, 40 to 70% for the second.

CCCCCCOc1ccc(C2Nc3ccccc3NC3=C2C(=O)NC3)c(OC)c1 (stereo not drawn) [Example 27] and COc1cc(OCc2ccccc2)ccc1C1Nc2ccccc2NC2=C1C(=O)NC2 (stereo not drawn) [Example 28] fall in the same range of activation at 100 µg/mL: 40 to 70% for the first, 40 to 70% for the second.

O=C1NCC2=C1C(c1ccc(Cl)cc1Cl)Nc1ccccc1N2 (stereo not drawn) [Example 20] and CC(C)(C)c1ccc(C2Nc3ccccc3NC3=C2C(=O)NC3)c(Cl)c1 (stereo not drawn) [Example 30] fall in the same range of activation at 100 µg/mL: 20 to 40% for the first, 20 to 40% for the second.

O=C1NCC2=C1C(c1ccc(OCCC3CCCCC3)cc1)Nc1ccccc1N2 (stereo not drawn) [Example 16] and O=C1NCC2=C1C(c1ccc3c(c1)Cc1ccccc1-3)Nc1ccccc1N2 (stereo not drawn) [Example 9] fall in the same range of activation at 100 µg/mL: 40 to 70% for the first, 40 to 70% for the second.

CCCCOc1ccc([C@H]2N[C@@H]3CCCC[C@H]3NC3=C2C(=O)NC3)c(OCCCC)c1 [Example 40] and O=C1NCC2=C1[C@@H](c1ccc(OCc3ccccc3)cc1O)N[C@@H]1CCCC[C@H]1N2 [Example 38] cannot be ordered by activation at 100 µg/mL: ≥ 70% for the first, ≥ 70% for the second.

Work on CN1C2=C(C(=O)NC2)C(c2ccc(Br)cc2)Nc2ccccc21 (stereo not drawn) [Example 44] yielded an activation at 100 µg/mL of 20 to 40%.

Same assay, conditions: concentration having a reinforcing effect corresponding to 50% of the reinforcing effect of insulin (100%); rat adipose cells

First: O=C1NCC2=C1[C@@H](c1ccccc1Cl)N(C(=O)CC(F)(F)F)[C@@H]1CCCC[C@H]1N2 [Example 143]
Second: CCOCC(=O)N1[C@@H]2CCCC[C@H]2NC2=C(C(=O)NC2)[C@H]1c1ccccc1Cl [Example 145]
The “A: sugar transporting activity (EC50)” value of the first is 21-fold lower: 0.5 µg/mL for the first, 10.7 µg/mL for the second.

First: CCC(=O)N1[C@@H]2CCCC[C@H]2NC2=C(C(=O)NC2)[C@H]1c1ccccc1Br [Example 135]
Second: COCC(=O)N1[C@@H]2CCCC[C@H]2NC2=C(C(=O)NC2)[C@H]1c1ccccc1Br [Example 138]
The “A: sugar transporting activity (EC50)” value of the first is 4-fold lower: 1.5 µg/mL for the first, 6 µg/mL for the second.

Going from CCOc1ccccc1[C@@H]1C2=C(CNC2=O)N[C@@H]2CCCC[C@H]2N1C(=O)COC [Example 93] to CCOc1ccccc1[C@@H]1C2=C(CNC2=O)N[C@@H]2CCCC[C@H]2N1C(=O)OC [Example 95], the “A: sugar transporting activity (EC50)” value falls from 3.6 µg/mL to 1.5 µg/mL (2.4-fold).

COc1ccccc1[C@@H]1C2=C(CNC2=O)N[C@@H]2CCCC[C@H]2N1C(=O)CCc1ncco1 [Example 166] and CSc1ccccc1[C@@H]1C2=C(CNC2=O)N[C@@H]2CCCC[C@H]2N1C(=O)CCc1ncco1 [Example 168] are within 1.5-fold of each other in “A: sugar transporting activity (EC50)” value: 0.064 µg/mL for the first, 0.070 µg/mL for the second.

First: CCOC(=O)N1[C@@H]2CCCC[C@H]2NC2=C(C(=O)NC2)[C@H]1c1ccccc1C [Example 124]
Second: CCC(=O)N1[C@@H]2CCCC[C@H]2NC2=C(C(=O)NC2)[C@H]1c1ccccc1C [Example 118]
The “A: sugar transporting activity (EC50)” value of the first is 3.5-fold higher: 7 µg/mL for the first, 2 µg/mL for the second.

First: CCOCC(=O)N1[C@@H]2CCCC[C@H]2NC2=C(C(=O)NC2)[C@H]1c1ccccc1CC [Example 129]
Second: CCC(=O)N1[C@@H]2CCCC[C@H]2NC2=C(C(=O)NC2)[C@H]1c1ccccc1CC [Example 127]
The “A: sugar transporting activity (EC50)” value of the first is 2.5-fold higher: 5.4 µg/mL for the first, 2.2 µg/mL for the second.

COc1ccccc1[C@@H]1C2=C(CNC2=O)N[C@@H]2CCCC[C@H]2N1C(=O)C(F)(F)F [Example 48] and COC(=O)N1[C@@H]2CCCC[C@H]2NC2=C(C(=O)NC2)[C@H]1c1ccccc1OC [Example 80] are within 1.5-fold of each other in “A: sugar transporting activity (EC50)” value: 4.5 µg/mL for the first, 6 µg/mL for the second.

COc1ccccc1[C@@H]1C2=C(CNC2=O)N[C@@H]2CCCC[C@H]2N1C(=O)COC(C)=O [Example 52] and CCCNC(=O)N1[C@@H]2CCCC[C@H]2NC2=C(C(=O)NC2)[C@H]1c1ccccc1OC [Example 85] are within 1.5-fold of each other in “A: sugar transporting activity (EC50)” value: 5.9 µg/mL for the first, 7 µg/mL for the second.

Going from COc1ccccc1[C@@H]1C2=C(CNC2=O)N[C@@H]2CCCC[C@H]2N1C(=O)Cc1ccccc1 [Example 56] to COc1ccccc1[C@@H]1C2=C(CNC2=O)N[C@@H]2CCCC[C@H]2N1C(=O)CCc1ccccc1 [Example 68], the “A: sugar transporting activity (EC50)” value falls from 5 µg/mL to 0.9 µg/mL (5.6-fold).

First: COC(=O)N1[C@@H]2CCCC[C@H]2NC2=C(C(=O)NC2)[C@H]1c1ccccc1F [Example 151]
Second: CCc1ccccc1[C@@H]1C2=C(CNC2=O)N[C@@H]2CCCC[C@H]2N1C(=O)OC [Example 132]
The “A: sugar transporting activity (EC50)” value of the first is 2-fold lower: 2 µg/mL for the first, 4 µg/mL for the second.

Going from Cc1ccccc1[C@@H]1C2=C(CNC2=O)N[C@@H]2CCCC[C@H]2N1C(=O)CO [Example 121] to CCc1ccccc1[C@@H]1C2=C(CNC2=O)N[C@@H]2CCCC[C@H]2N1C(C)=O [Example 131], the “A: sugar transporting activity (EC50)” value rises from 2.5 µg/mL to 4 µg/mL (1.6-fold).

COc1cccc([C@@H]2C3=C(CNC3=O)N[C@@H]3CCCC[C@H]3N2C(C)=O)c1OC [Example 114] and COc1ccc(F)cc1[C@@H]1C2=C(CNC2=O)N[C@@H]2CCCC[C@H]2N1C(C)=O [Example 113] are within 1.5-fold of each other in “A: sugar transporting activity (EC50)” value: 12 µg/mL for the first, 10 µg/mL for the second.

COc1ccccc1[C@@H]1C2=C(CNC2=O)N[C@@H]2CCCC[C@H]2N1C(=O)c1ccccn1 [Example 76] and COc1ccccc1[C@@H]1C2=C(CNC2=O)N[C@@H]2CCCC[C@H]2N1C(=O)c1cnccn1 [Example 79] are within 1.5-fold of each other in “A: sugar transporting activity (EC50)” value: 10 µg/mL for the first, 8.6 µg/mL for the second.

CC(=O)N1[C@@H]2CCCC[C@H]2NC2=C(C(=O)NC2)[C@H]1c1ccccc1OC(C)C [Example 98] and CCOc1ccccc1[C@@H]1C2=C(CNC2=O)N[C@@H]2CCCC[C@H]2N1C(C)=O [Example 87] are within 1.5-fold of each other in “A: sugar transporting activity (EC50)” value: 14 µg/mL for the first, 15 µg/mL for the second.

O=C1NCC2=C1[C@@H](c1ccccc1OC(F)(F)F)N(C(=O)CCc1nccs1)[C@@H]1CCCC[C@H]1N2 [Example 171] and CSc1ccccc1[C@@H]1C2=C(CNC2=O)N[C@@H]2CCCC[C@H]2N1C(=O)CCc1nccs1 [Example 173] are within 1.5-fold of each other in “A: sugar transporting activity (EC50)” value: 0.070 µg/mL for the first, 0.060 µg/mL for the second.

Going from CCOC(=O)N1[C@@H]2CCCC[C@H]2NC2=C(C(=O)NC2)[C@H]1c1ccccc1OCC [Example 96] to COc1ccccc1[C@@H]1C2=C(CNC2=O)N[C@@H]2CCCC[C@H]2N1C(=O)CCc1ncc(C)s1 [Example 174], the “A: sugar transporting activity (EC50)” value falls from 7 µg/mL to 0.050 µg/mL (140-fold).

COc1ccccc1CCC(=O)N1[C@@H]2CCCC[C@H]2NC2=C(C(=O)NC2)[C@H]1c1ccccc1OC [Example 69] and COc1ccccc1[C@@H]1C2=C(CNC2=O)N[C@@H]2CCCC[C@H]2N1C(=O)COc1ccccc1 [Example 55] are within 1.5-fold of each other in “A: sugar transporting activity (EC50)” value: 4 µg/mL for the first, 4.6 µg/mL for the second.

CC(=O)N1[C@@H]2CCCC[C@H]2NC2=C(C(=O)NC2)[C@H]1c1ccccc1OCc1ccccc1 [Example 103] and COc1ccc([C@@H]2C3=C(CNC3=O)N[C@@H]3CCCC[C@H]3N2C(C)=O)cc1 [Example 160] are within 1.5-fold of each other in “A: sugar transporting activity (EC50)” value: 3.6 µg/mL for the first, 4.4 µg/mL for the second.

From patent US7632830B2, “Lactam compounds and pharmaceutical use thereof” (Ajinomoto Co., Inc., priority 2000, dated 2009)
